# Measurements reported in patent publication US20120178766A1, “FUROPYRIMIDINEDIONE DERIVATIVES AS TRPAI MODULATORS” (priority 2009, published 2012).
# Key:
# human TRPA1 = molecular target: T1, human TRPA1 (Homo sapiens, UniProt O75762); experiment: 45Calcium uptake assay: inhibition of AITC induced cellular uptake of radioactive calcium, human TRPA1 expressing CHO cells; format: cell-based; conditions: AITC 30 μM; for inhibition at 1 µM: 1.0 μM compound, read-out: human TRPA1 Percentage inhibition at 1.0 μM; for inhibition at 10 µM: 10.0 μM compound, read-out: human TRPA1 Percentage inhibition at 10.0 μM
# T1 construct: expressed in transfected cells; host or cells: CHO cells (G-418 selection)
# T1 sequence (O75762 whole entry): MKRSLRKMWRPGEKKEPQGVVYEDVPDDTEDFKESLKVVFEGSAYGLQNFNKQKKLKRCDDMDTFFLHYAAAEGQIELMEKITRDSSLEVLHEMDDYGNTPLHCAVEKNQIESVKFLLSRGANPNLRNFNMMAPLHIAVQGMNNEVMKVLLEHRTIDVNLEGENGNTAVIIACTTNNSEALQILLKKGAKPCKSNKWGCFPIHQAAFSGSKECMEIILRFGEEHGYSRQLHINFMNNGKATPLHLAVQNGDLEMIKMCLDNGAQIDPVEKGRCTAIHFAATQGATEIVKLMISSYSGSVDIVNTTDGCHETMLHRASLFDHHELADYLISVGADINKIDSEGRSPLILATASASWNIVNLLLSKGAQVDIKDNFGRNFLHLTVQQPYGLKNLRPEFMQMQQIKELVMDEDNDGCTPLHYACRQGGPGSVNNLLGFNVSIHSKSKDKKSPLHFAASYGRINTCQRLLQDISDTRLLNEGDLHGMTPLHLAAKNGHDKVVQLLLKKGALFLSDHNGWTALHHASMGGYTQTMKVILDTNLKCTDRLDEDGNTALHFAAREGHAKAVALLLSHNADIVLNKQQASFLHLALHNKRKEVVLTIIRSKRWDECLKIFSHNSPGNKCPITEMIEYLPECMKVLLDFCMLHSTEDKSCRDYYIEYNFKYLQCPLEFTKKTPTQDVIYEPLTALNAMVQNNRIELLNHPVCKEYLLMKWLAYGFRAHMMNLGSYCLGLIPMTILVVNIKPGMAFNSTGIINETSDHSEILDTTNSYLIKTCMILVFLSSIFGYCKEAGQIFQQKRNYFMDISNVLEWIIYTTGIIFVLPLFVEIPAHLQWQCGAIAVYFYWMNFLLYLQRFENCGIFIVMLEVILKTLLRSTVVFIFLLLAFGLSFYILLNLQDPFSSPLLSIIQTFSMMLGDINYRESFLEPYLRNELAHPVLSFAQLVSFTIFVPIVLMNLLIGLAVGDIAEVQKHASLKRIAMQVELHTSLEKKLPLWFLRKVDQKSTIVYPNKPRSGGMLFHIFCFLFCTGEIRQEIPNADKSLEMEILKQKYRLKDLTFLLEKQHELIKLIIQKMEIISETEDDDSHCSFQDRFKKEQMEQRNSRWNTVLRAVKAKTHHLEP
# Source text: The illustrative examples of the present invention are screened for TRPA1 activity according to a modified procedure described in (a) Tóth, A. et al. Life Sciences, 2003, 73, 487-498. (b) McNamara C, R. et al, Proc. Natl. Acad. Sci. U.S.A., 2007, 104, 13525-13530. The screening of the compounds can be carried out by other methods and procedures known to persons skilled in the art.
# (§1) Screening for TRPA1 Antagonist Using the ^45Calcium Uptake Assay:
# (§2) The inhibition of TRPA1 receptor activation was measured as inhibition of allyl isothiocyanate (AITC) induced cellular uptake of radioactive calcium.
# Test compounds were dissolved in 100% DMSO to prepare 10 mM stock and then diluted using plain medium with 0.1% BSA and 1.8 mM CaCl2 to get the desired concentration. The final concentration of DMSO in the reaction was 0.5% (v/v). Human TRPA1 expressing CHO cells were grown in F-12 DMEM medium with 10% FBS, 1% penicillin-streptomycin solution, and 400 μg/ml of G-418. Rat TRPA1 expressing CHO cells were grown in F-12 DMEM medium with 10% FBS, 1% penicillin-streptomycin solution, and 400 μg/ml of Zeocin. Cells were seeded 24 h prior to the assay in 96 well plates so as to get ˜50,000 cells per well on the day of experiment. Cells were treated with the test compounds for 10 minutes followed by the addition of AITC at a final concentration of 30 μM (for human TRPA1) and/or 10 μM (for rat TRPA1) and 5 μCi/ml ^45Ca^+2 for 3 minutes. Cells were washed and lysed using a buffer containing 1% Triton X-100, 0.1% deoxycholate and 0.1% SDS. Radioactivity in the lysate was measured in a Packard TopCount after addition of liquid scintillant. (Toth et al, Life Sciences (2003) 73, 487-498; McNamara C R et al, Proceedings of the National Academy of Sciences, (2007) 104, 13525-13530).
# (§3) Concentration response curves were plotted as a % of maximal response obtained in the absence of test antagonist. IC50 values can be calculated from concentration response curve by nonlinear regression analysis using GraphPad PRISM software.
# rat TRPA1 = molecular target: T2, rat TRPA1 (Rattus norvegicus, UniProt Q6RI86); experiment: 45Calcium uptake assay: inhibition of AITC induced cellular uptake of radioactive calcium, rat TRPA1 expressing CHO cells; format: cell-based; conditions: AITC 10 μM; for inhibition at 10 µM: 10.0 μM compound, read-out: rat TRPA1 Percentage inhibition at 10.0 μM; for inhibition at 1 µM: read-out: rat TRPA1 Percentage inhibition; for IC50: class symbols
# T2 construct: expressed in transfected cells; host or cells: CHO cells (Zeocin selection)
# T2 sequence (Q6RI86 whole entry): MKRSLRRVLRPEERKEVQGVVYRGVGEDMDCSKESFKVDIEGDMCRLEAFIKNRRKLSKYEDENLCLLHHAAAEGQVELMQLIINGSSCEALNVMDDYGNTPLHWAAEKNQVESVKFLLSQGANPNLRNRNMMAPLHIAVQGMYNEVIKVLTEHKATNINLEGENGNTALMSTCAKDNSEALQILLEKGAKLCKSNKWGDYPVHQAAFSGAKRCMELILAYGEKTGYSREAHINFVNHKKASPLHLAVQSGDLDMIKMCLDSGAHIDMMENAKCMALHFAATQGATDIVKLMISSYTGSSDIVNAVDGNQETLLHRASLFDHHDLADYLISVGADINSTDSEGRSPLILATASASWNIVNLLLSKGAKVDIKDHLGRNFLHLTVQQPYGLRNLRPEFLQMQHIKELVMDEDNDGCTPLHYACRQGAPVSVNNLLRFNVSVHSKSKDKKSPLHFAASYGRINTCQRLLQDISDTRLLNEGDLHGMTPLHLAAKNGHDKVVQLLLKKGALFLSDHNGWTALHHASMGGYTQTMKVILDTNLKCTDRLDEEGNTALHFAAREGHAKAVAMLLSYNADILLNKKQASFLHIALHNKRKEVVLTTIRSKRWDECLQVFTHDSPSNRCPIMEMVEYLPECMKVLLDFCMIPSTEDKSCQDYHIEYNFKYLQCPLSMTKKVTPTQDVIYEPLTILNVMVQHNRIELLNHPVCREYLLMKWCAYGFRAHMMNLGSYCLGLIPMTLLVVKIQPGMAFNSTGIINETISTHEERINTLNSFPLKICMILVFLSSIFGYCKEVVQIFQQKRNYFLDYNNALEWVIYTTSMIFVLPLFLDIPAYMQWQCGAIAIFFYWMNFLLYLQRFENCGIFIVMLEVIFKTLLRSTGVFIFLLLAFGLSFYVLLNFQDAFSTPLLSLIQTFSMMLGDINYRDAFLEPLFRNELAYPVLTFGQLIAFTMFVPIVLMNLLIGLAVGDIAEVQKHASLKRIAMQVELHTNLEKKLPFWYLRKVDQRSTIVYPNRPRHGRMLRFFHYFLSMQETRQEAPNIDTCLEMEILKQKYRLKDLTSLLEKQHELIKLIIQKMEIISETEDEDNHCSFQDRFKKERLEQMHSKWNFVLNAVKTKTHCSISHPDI
# Procedure: as §1, §2
# Test compounds were dissolved in 100% DMSO to prepare 10 mM stock and then diluted using plain medium with 0.1% BSA and 1.8 mM CaCl2 to get the desired concentration. The final concentration of DMSO in the reaction was 0.5% (v/v). […] Rat TRPA1 expressing CHO cells were grown in F-12 DMEM medium with 10% FBS, 1% penicillin-streptomycin solution, and 400 μg/ml of Zeocin. […] Cells were treated with the test compounds for 10 minutes followed by the addition of AITC at a final concentration of 30 μM (for human TRPA1) and/or 10 μM (for rat TRPA1) and 5 μCi/ml ^45Ca^+2 for 3 minutes. Cells were washed and lysed using a buffer containing 1% Triton X-100, 0.1% deoxycholate and 0.1% SDS. Radioactivity in the lysate was measured in a Packard TopCount after addition of liquid scintillant.
# as §3
SMILES,IC50 (human TRPA1; class symbols),inhibition at 10 µM (rat TRPA1),inhibition at 1 µM (rat TRPA1),inhibition at 1 µM (human TRPA1),inhibition at 10 µM (human TRPA1),IC50 (rat TRPA1),IC50 (human TRPA1; numeric values)
"Cn1c(=O)c2c(CC(=O)Nc3ccc(Oc4ccc(C(F)(F)F)cc4)cc3)coc2n(C)c1=O [Example 1, N1-[4-(4-Trifluoromethylphenoxy)phenyl]-2-(1,3-dimethyl-2,4-dioxo-1,2,3,4-tetrahydrofuro[2,3-d]pyrimidin-5-yl)acetamide]",> 100 nM,100%,96.7%,,,,
"Cn1c(=O)c2c(CC(=O)NCCc3ccc(Cl)cc3Cl)coc2n(C)c1=O [Example 2, N1-[2-(2,4-Dichlorophenyl)ethyl]-2-(1,3-dimethyl-2,4-dioxo-1,2,3,4-tetrahydrofuro[2,3-d]pyrimidin-5-yl)acetamide]",,,,17.7%,28.4%,,
"Cn1c(=O)c2c(CC(=O)Nc3nc(C(F)(F)F)cs3)coc2n(C)c1=O [Example 3, N1-[4-(Trifluoromethyl)-1,3-thiazol-2-yl]-2-(1,3-Dimethyl-2,4-dioxo-1,2,3,4-tetrahydrofuro[2,3-d]pyrimidin-5-yl)acetamide]",,,,6.44%,45.8%,,
"Cn1c(=O)c2c(CC(=O)Nc3nc4c(F)cc(F)cc4s3)coc2n(C)c1=O [Example 4, N-(4,6-Difluoro-1,3-benzothiazol-2-yl)-2-(1,3-dimethyl-2,4-dioxo-1,2,3,4-tetrahydrofuro[2,3-d]pyrimidin-5-yl)acetamide]",,,,14.5%,57.3%,,
"CC(C)Cc1ccc(-c2csc(NC(=O)Cc3coc4c3c(=O)n(C)c(=O)n4C)n2)cc1 [Example 5, N1-[4-(4-Isobutylphenyl)-1,3-thiazol-2-yl]-2-(1,3-dimethyl-2,4-dioxo-1,2,3,4-tetrahydrofuro[2,3-d]pyrimidin-5-yl)acetamide]",,,,27%,99.8%,,
"Cn1c(=O)c2c(CC(=O)Nc3nc(-c4ccc(C(F)(F)F)cc4)cs3)coc2n(C)c1=O [Example 6, N1-{4-[4-(Trifluoromethyl)phenyl]-1,3-thiazol-2-yl}-2-(1,3-dimethyl-2,4-dioxo-1,2,3,4-tetrahydrofuro[2,3-d]pyrimidin-5-yl)acetamide]",< 50 nM,,,100%,99.6%,,
"Cn1c(=O)c2c(CC(=O)Nc3nc(-c4cccc(C(F)(F)F)c4)cs3)coc2n(C)c1=O [Example 7, N1-{4-[3-(Trifluoromethyl)phenyl]-1,3-thiazol-2-yl}-2-(1,3-dimethyl-2,4-dioxo-1,2,3,4-tetrahydrofuro[2,3-d]pyrimidin-5-yl)acetamide]",< 50 nM,,,98.8%,99.8%,,
"Cn1c(=O)c2c(CC(=O)Nc3nc(-c4ccc(OC(F)(F)F)cc4)cs3)coc2n(C)c1=O [Example 8, N1-[4-(4-Trifluorormethoxyphenyl)-1,3-thiazol-2-yl]-2-(1,3-dimethyl-2,4-dioxo-1,2,3,4-tetrahydrofuro[2,3-d]pyrimidin-5-yl)acetamide]",< 50 nM,100%,100%,93.2%,98.8%,< 50 nM,
"Cn1c(=O)c2c(CC(=O)Nc3nc(-c4cccc(OC(F)(F)F)c4)cs3)coc2n(C)c1=O [Example 9, N1-[4-(3-Trifluorormethoxyphenyl)-1,3-thiazol-2-yl]-2-(1,3-dimethyl-2,4-dioxo-1,2,3,4-tetrahydrofuro[2,3-d]pyrimidin-5-yl)acetamide]",< 50 nM,,,99.3%,100%,,
"Cn1c(=O)c2c(CC(=O)Nc3nc(-c4ccc(F)c(Br)c4)cs3)coc2n(C)c1=O [Example 10, N1-[4-(3-Bromo-4-fluorophenyl)-1,3-thiazol-2-yl]-2-(1,3-dimethyl-2,4-dioxo-1,2,3,4-tetrahydrofuro[2,3-d]pyrimidin-5-yl)acetamide]",< 50 nM,100%,97.5%,98.5%,97.7%,50 to 100 nM,
"Cn1c(=O)c2c(CC(=O)Nc3nc(-c4ccc(F)c(F)c4)cs3)coc2n(C)c1=O [Example 11, N1-[4-(3,4-Difluorophenyl)-1,3-thiazol-2-yl]-2-(1,3-dimethyl-2,4-dioxo-1,2,3,4-tetrahydrofuro[2,3-d]pyrimidin-5-yl)acetamide]",50 to 100 nM,,,98.8%,99.4%,,
"Cn1c(=O)c2c(CC(=O)Nc3nc(-c4ccc(F)cc4F)cs3)coc2n(C)c1=O [Example 12, N1-[4-(2,4-Difluorophenyl)-1,3-thiazol-2-yl]-2-(1,3-dimethyl-2,4-dioxo-1,2,3,4-tetrahydrofuro[2,3-d]pyrimidin-5-yl)acetamide]",> 100 nM,,,97.9%,98.4%,,
"Cn1c(=O)c2c(CC(=O)Nc3nc(-c4ccc(Cl)c(Cl)c4)cs3)coc2n(C)c1=O [Example 13, N1-[4-(3,4-Dichlorophenyl)-1,3-thiazol-2-yl]-2-(1,3-dimethyl-2,4-dioxo-1,2,3,4-tetrahydrofuro[2,3-d]pyrimidin-5-yl)acetamide]",< 50 nM,,,98.5%,99.4%,> 100 nM,
"Cn1c(=O)c2c(CC(=O)Nc3nc(-c4ccc(C(F)(F)F)c(F)c4)cs3)coc2n(C)c1=O [Example 14, N1-{4-[3-Fluoro-4-(trifluoromethyl)phenyl]-1,3-thiazol-2-yl}-2-(1,3-dimethyl-2,4-dioxo-1,2,3,4-tetrahydrofuro[2,3-d]pyrimidin-5-yl)acetamide]",< 50 nM,100%,100%,99.4%,99.7%,< 50 nM,
"Cn1c(=O)c2c(CC(=O)Nc3nc(-c4ccc(OC(F)F)c(Br)c4)cs3)coc2n(C)c1=O [Example 25, N1-[4-(3-Bromo-4-difluoromethoxyphenyl)-1,3-thiazol-2-yl]-2-(1,3-dimethyl-2,4-dioxo-1,2,3,4-tetrahydrofuro[2,3-d]pyrimidin-5-yl)acetamide]",< 50 nM,,,99.3%,99.8%,,
"CC(C)COc1ccc(-c2csc(NC(=O)Cc3coc4c3c(=O)n(C)c(=O)n4C)n2)cc1Br [Example 29, N1-[4-(3-Bromo-4-isobutoxyphenyl)-1,3-thiazol-2-yl]-2-(1,3-dimethyl-2,4-dioxo-1,2,3,4-tetrahydrofuro[2,3-d]pyrimidin-5-yl)acetamide]",> 100 nM,,,98.6%,99.8%,,
"Cn1c(=O)c2c(CC(=O)Nc3nc(-c4cc(F)c(F)cc4F)cs3)coc2n(C)c1=O [Example 33, N1-[4-(2,4,5,-Trifluorophenyl)-1,3-thiazol-2-yl]-2-(1,3-dimethyl-2,4-dioxo-1,2,3,4-tetrahydrofuro[2,3-d]pyrimidin-5-yl)acetamide]",< 50 nM,,,97.9%,98.1%,,
"CC(C)CCOc1c(F)cc(-c2csc(NC(=O)Cc3coc4c3c(=O)n(C)c(=O)n4C)n2)cc1F [Example 45, N1-{4-[3,5-Difluoro-4-(3-methylbutoxy)phenyl]-1,3-thiazol-2-yl}-2-(1,3-dimethyl-2,4-dioxo-1,2,3,4-tetrahydrofuro[2,3-d]pyrimidin-5-yl)acetamide]",< 50 nM,,,90.7%,98.1%,,
"Cc1oc2c(c1CC(=O)Nc1nc(-c3cc(F)c(Cl)cc3Cl)cs1)c(=O)n(C)c(=O)n2C [Example 79, N1-[4-(2,4-Dichloro-5-fluorophenyl)-1,3-thiazol-2-yl]-2-(1,3,6-trimethyl-2,4-dioxo-1,2,3,4-tetrahydrofuro[2,3-d]pyrimidin-5-yl)acetamide]",,,,,,,247 nM
